# US7244855B2, “Synthesis of oligomeric epicatechin and catechin-derived procyanidins” (Mars, Inc., priority 2002, dated 2007)
# Assays:
# [1] = test system: MDA MB-231 human breast cancer cells; test: Cell cycle analysis by flow cytometry (Vindelov method); format: cell-based; details: for Effect on cell cycle (G0/G1 arrest), in words: procyanidin-treated MDA MB-231 cells, see Table 1; for Increase in G0/G1 arrest, synthetic compared to natural procyanidin: see Table 2
# Description: The MDA MB-231 cell line was P53 defective, ER negative, and constitutively expressed K-ras. Cells were cultured in T-75s in IMEM medium (BioFluids Inc.) supplemented with 10% FBS (Gibco BRL Life Technologies) in a humidified 5% CO2 atmosphere at 37° C. […] See Vindelov, L. et al., “A Detergent Trypsin Method for the Preparation of Nuclei for Flow Cytometric DNA Analysis”, Cytometry, 1983, 3, 323–327. Analyses were performed by the Lombardi Cancer Center Flow Cytometry Core Facility at Georgetown University Medical Center.
# [2] = test system: human breast cancer cell lines; test: Cytotoxicity assay (microculture tetrazolium assay modified for crystal violet); format: cell-based
# Description: The human breast cancer cell lines MCF-7, SKBR-3, MDA 435, and MDA MB-231 were obtained from the Lombardi Cancer Center Cell Culture Core Facility at Georgetown University Medical Center. The MDA MB-231 cell line was P53 defective, ER negative, and constitutively expressed K-ras. Cells were cultured in T-75s in IMEM medium (BioFluids Inc.) supplemented with 10% FBS (Gibco BRL Life Technologies) in a humidified 5% CO2 atmosphere at 37° C.
# Cytotoxicity assays were performed on several human breast cancer cell lines treated with test compounds in a 96 well microtiter plate format using the microculture tetrazolium assay^28 modified for use with crystal violet rather than MTT. Briefly, 1–2×10^3 cells were added per well and allowed to culture in a humidified, 5% CO2 atmosphere until they reached approximately 50% confluence. Sterile filtered test compounds were added at various concentrations, and the plates were allowed to culture for an additional 12–36 hours. The growth medium was then removed, and each well was washed twice with 200 μL each of pH 7.4 PBS. […] At the end of 1 hour, the plates were scanned at 570 nm (ref. 405 nm) with a Molecular Devices Corporation microtiter plate reader, and the data was recorded with the SOFTMAX software program. The average of 3 readings was taken for each blank, control, vehicle, and test concentration for statistical data manipulation.
# [3] = Table 3, 100 μM H2O2 + catalase, 24 hr
# [4] = Table 3, 100 μM H2O2 + heat inactivated catalase, 24 hr
# [5] = Table 2, natural versus synthetic, 200 μg/mL, 24 hr
# [6] = Table 1, procyanidins purified from cocoa, 200 μg/mL, 24 hrs
# [7] = Table 3, 200 μg/mL + 100 μM H2O2 + catalase, 24 hr
# [8] = Table 3, 200 μg/mL + 100 μM H2O2 + heat inactivated catalase, 24 hr
# [9] = Table 3, 200 μg/mL + 100 μM H2O2, 24 hr
# [10] = Table 3, 200 μg/mL + catalase, 24 hr
# [11] = Table 3, 200 μg/mL + heat inactivated catalase, 24 hr
smiles,measurement,setting,value
"OO [H2O2, hydrogen peroxide, reference compound]",% G0/G1,[1]; [3],35.20%
same,% G2/M,[1]; [3],21.86%
same,% S,[1]; [3],42.93%
same,% G0/G1,[1]; [4],20.27%
same,% G2/M,[1]; [4],34.25%
same,% S,[1]; [4],45.48%
same,% G0/G1,"[1]; Table 3, 100 μM H2O2, 24 hr",20.32%
same,% G2/M,"[1]; Table 3, 100 μM H2O2, 24 hr",34.76%
same,% S,"[1]; Table 3, 100 μM H2O2, 24 hr",44.92%
same,"Effect of hydrogen peroxide on cell cycle, in words","[1]; hydrogen peroxide at levels reported in the literature, see Table 3",shift in the cell cycle to G2/M with a decrease in G0/G1
"Oc1cc(O)c2c(c1)O[C@H](c1ccc(O)c(O)c1)[C@H](O)[C@H]2c1c(O)cc(O)c2c1O[C@H](c1ccc(O)c(O)c1)[C@H](O)[C@H]2c1c(O)cc(O)c2c1O[C@H](c1ccc(O)c(O)c1)[C@H](O)[C@H]2c1c(O)cc(O)c2c1O[C@H](c1ccc(O)c(O)c1)[C@H](O)[C@H]2c1c(O)cc(O)c2c1O[C@H](c1ccc(O)c(O)c1)[C@H](O)C2 [Natural pentamer, epicatechin (4β,8)4-pentamer]",% G0/G1,[1]; [5],45.99%
same,% G2/M,[1]; [5],15.76%
same,% S,[1]; [5],38.25%
"Oc1cc(O)c2c(c1)O[C@H](c1ccc(O)c(O)c1)[C@H](O)[C@H]2c1c(O)cc(O)c2c1O[C@H](c1ccc(O)c(O)c1)[C@H](O)[C@H]2c1c(O)cc(O)c2c1O[C@H](c1ccc(O)c(O)c1)[C@H](O)[C@H]2c1c(O)cc(O)c2c1O[C@H](c1ccc(O)c(O)c1)[C@H](O)C2 [Natural tetramer, epicatechin (4β,8)3-tetramer]",% G0/G1,[1]; [6],51.46%
same,% G2/M,[1]; [6],20.30%
same,% S,[1]; [6],28.25%
same,% G0/G1,[1]; [5],36.82%
same,% G2/M,[1]; [5],19.02%
same,% S,[1]; [5],43.37%
same,"Effect on cell cycle (G0/G1 arrest), in words",[1],only a slight effect
"Oc1cc(O)c2c(c1)O[C@H](c1ccc(O)c(O)c1)[C@H](O)[C@H]2c1c(O)cc(O)c2c1O[C@H](c1ccc(O)c(O)c1)[C@H](O)[C@H]2c1c(O)cc(O)c2c1O[C@H](c1ccc(O)c(O)c1)[C@H](O)C2 [Natural trimer, epicatechin (4β,8)2-trimer]",% G0/G1,[1]; [6],43.22%
same,% G2/M,[1]; [6],20.80%
same,% S,[1]; [6],35.98%
same,% G0/G1,[1]; [5],28.46%
same,% G2/M,[1]; [5],23.05%
same,% S,[1]; [5],48.49%
same,"Effect on cell cycle (G0/G1 arrest), in words",[1],no effect
"Oc1cc(O)c2c(c1)O[C@H](c1ccc(O)c(O)c1)[C@H](O)[C@H]2c1c(O)cc(O)c2c1O[C@H](c1ccc(O)c(O)c1)[C@H](O)[C@H]2c1c(O)cc(O)c2c1O[C@H](c1ccc(O)c(O)c1)[C@H](O)[C@H]2c1c(O)cc(O)c2c1O[C@H](c1ccc(O)c(O)c1)[C@H](O)[C@H]2c1c(O)cc(O)c2c1O[C@H](c1ccc(O)c(O)c1)[C@H](O)C2 [Pentamers, epicatechin (4β,8)4-pentamer]",% G0/G1,[1]; [7],48.20%
same,% G2/M,[1]; [7],20.68%
same,% S,[1]; [7],31.12%
same,% G0/G1,[1]; [8],39.47%
same,% G2/M,[1]; [8],37.14%
same,% S,[1]; [8],23.39%
same,% G0/G1,[1]; [9],42.67%
same,% G2/M,[1]; [9],38.71%
same,% S,[1]; [9],18.63%
same,% G0/G1,[1]; [10],41.23%
same,% G2/M,[1]; [10],20.12%
same,% S,[1]; [10],39.65%
same,% G0/G1,[1]; [11],42.89%
same,% G2/M,[1]; [11],17.68%
same,% S,[1]; [11],39.43%
same,% G0/G1,"[1]; Table 3, 200 μg/mL, 24 hr",44.94%
same,% G2/M,"[1]; Table 3, 200 μg/mL, 24 hr",17.05%
same,% S,"[1]; Table 3, 200 μg/mL, 24 hr",38.01%
same,"Effect on cell cycle (G0/G1 arrest), in words",[1],caused a G0/G1 arrest
same,Cytotoxicity to human breast cancer cell lines,[2]; purified from cocoa polyphenol extracts or prepared synthetically,cytotoxicity to human breast cancer cell lines
"Oc1cc(O)c2c(c1)O[C@H](c1ccc(O)c(O)c1)[C@H](O)[C@H]2c1c(O)cc(O)c2c1O[C@H](c1ccc(O)c(O)c1)[C@H](O)[C@H]2c1c(O)cc(O)c2c1O[C@H](c1ccc(O)c(O)c1)[C@H](O)[C@H]2c1c(O)cc(O)c2c1O[C@H](c1ccc(O)c(O)c1)[C@H](O)[C@H]2c1c(O)cc(O)c2c1O[C@H](c1ccc(O)c(O)c1)[C@H](O)C2 [Synthetic pentamer, epicatechin (4β,8)4-pentamer]","Increase in G0/G1 arrest, synthetic compared to natural procyanidin","[1]; 200 μg/mL, 24 hr",approximately 30%
same,% G0/G1,[1]; [5],64.15%
same,% G2/M,[1]; [5],12.49%
same,% S,[1]; [5],23.36%
same,Cell growth inhibition,[2]; several breast cancer cell lines,inhibited cell growth
"Oc1cc(O)c2c(c1)O[C@H](c1ccc(O)c(O)c1)[C@H](O)[C@H]2c1c(O)cc(O)c2c1O[C@H](c1ccc(O)c(O)c1)[C@H](O)[C@H]2c1c(O)cc(O)c2c1O[C@H](c1ccc(O)c(O)c1)[C@H](O)[C@H]2c1c(O)cc(O)c2c1O[C@H](c1ccc(O)c(O)c1)[C@H](O)C2 [Synthetic tetramer, epicatechin (4β,8)3-tetramer]","Increase in G0/G1 arrest, synthetic compared to natural procyanidin","[1]; 200 μg/mL, 24 hr",approximately 15%
same,% G0/G1,[1]; [5],43.49%
same,% G2/M,[1]; [5],17.03%
same,% S,[1]; [5],39.39%
"Oc1cc(O)c2c(c1)O[C@H](c1ccc(O)c(O)c1)[C@H](O)[C@H]2c1c(O)cc(O)c2c1O[C@H](c1ccc(O)c(O)c1)[C@H](O)[C@H]2c1c(O)cc(O)c2c1O[C@H](c1ccc(O)c(O)c1)[C@H](O)C2 [Synthetic trimer, epicatechin (4β,8)2-trimer]","Increase in G0/G1 arrest, synthetic compared to natural procyanidin","[1]; 200 μg/mL, 24 hr",No difference in activity
same,% G0/G1,[1]; [5],26.98%
same,% G2/M,[1]; [5],23.45%
same,% S,[1]; [5],49.57%
